Test results as given in patent publication US11040083B2, “Polypeptides comprising vinculin binding sites for the treatment of proliferation and/or adhesion related diseases” (PARIS SCIENCES ET LETTRES—QUARTIER LATIN, priority 2015, dated 2021).
No end group written: not given here.

Tests used:
talin H1-H4 [1] = target: T1, talin H1-H4 (Homo sapiens, UniProt Q9Y490); test: Isothermal titration calorimetry; format: binding; conditions: for N (stoichiometry): ITC non-linear fit; for N (stoichiometry) / ΔG free enthalpy / ΔH enthalpy / −TΔS entropic contribution: 25° C.
T1 sequence (Q9Y490 482-636): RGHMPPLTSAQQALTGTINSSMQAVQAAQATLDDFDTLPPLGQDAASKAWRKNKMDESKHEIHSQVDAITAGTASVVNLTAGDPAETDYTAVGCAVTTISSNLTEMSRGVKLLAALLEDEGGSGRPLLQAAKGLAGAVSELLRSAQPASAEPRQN
Description: Vinculin, IpaA proteins and peptides were extensively dialyzed in binding buffer (25 mM Tris pH 7.4, 100 mM NaCl and 1 mM β-Mercaptoethanol). The final concentration of all proteins/peptides was measured using a BCA test (Thermo Scientific). Talin-IpaA binding was measured by microcalorimetry using an ITC200 calorimeter (MicroCal) at 25° C. 200 μL of 20-100 μM of talin H1-H4 protein was added to the cell and binding in the presence of different concentrations of IpaA VBS1, VBS2 or VBS3 peptides was measured. In other experiments, 200 μL of a 16 μM equimolar mix of A483:HVD1 was incubated for one hour at room temperature prior to addition to the cell. Binding to talin H1-H4 (100 μM) was measured. Typically, 20-40 injections of 2 μL of ligand were made with intervals of 320 seconds between each addition, with a reference power of 12 μcal/sec. Data were analyzed using the MicroCal software provided by manufacturer.

talin H1-H4 [2] = target: T1, talin H1-H4; test: Native-PAGE gel shift; format: binding
Description: Talin H1-H4 and IpaA peptides/proteins were incubated in binding buffer for 1 hour at 4° C. After incubation, the protein/peptides were mixed in a 2× Native loading buffer (62.5 mM Tris pH 6.8, Glycerol 25%) and separated by Tris-Glycine Native-PAGE electrophoresis. Gels were stained using standard colloidal Coomassie stain.
Talin H1-H4 and IpaA peptides/proteins at different molar ratios were incubated in binding buffer (25 mM Tris pH 7.4, 100 mM NaCl and 1 mM β-Mercaptoethanol) for 1 hour at 4° C. After incubation, the protein/peptides were mixed in a 2× Native loading buffer (62.5 mM Tris pH 6.8, Glycerol 25%) and separated by Tris-Glycine Native-PAGE electrophoresis. The Native PAGE electrophoresis gels were stained using standard colloidal Coomassie stain.

HeLa cells = test: Immunofluorescence of V5-tagged IpaA derivatives and talin; format: cell-based; conditions: V5 epitope and talin staining
Source text: FIG. 8 is a set of photographs showing the interaction between IpaA VBS3 and talin (H1-H4). A, IpaA constructs used in this study. The VBSs are depicted as boxes in IpaA full length (IpaA-FL), with the residue number corresponding to the first residue of the corresponding VBS. The first and last IpaA residues are annotated for the IpaA truncated derivatives. V5: V5 epitope. B, HeLa cells were transfected with IpaA derivatives, fixed and processed for immunofluorescence staining of the V5 epitope and talin. Representative fluorescence images are shown, with a larger magnification of the inset boxed in the left panels. Scale bar=5 μm. C, Native PAGE analysis of IpaA VBSs and talin H1-H4 interaction. 1. Purified talin H1-H4 was incubated with the indicated IpaA VBS peptides and analyzed using 6-18% gradient native PAGE. The talin H1-H4: IpaA VBS molar ratio is indicated, with 1 corresponding to a final concentration of 25 μM. The migration of talin H1-H4 and of the talin H1-H4:IpaA VBS3 complex are indicated.

melanocytes = test: Time lapse cell migration; format: cell-based; conditions: 6 movies per sample, preliminary
[3] = Size exclusion chromatography, hydrodynamic radius; format: physicochemical
Description: The purified proteins HVD1, A483, A524 and Talin H1-H4 were used at an equimolar concentration of 20 μM and incubated at 4° C. for one hour in binding buffer. The protein mixtures (200 μL) were injected in a FPLC chromatography system (FPLC Pharmacia) at 16° C. in a Superdex 75 HR 10/30 column (GE Healthcare) previously equilibrated with 10 volumes of binding buffer. The SEC system was calibrated with a Low Molecular Weight Gel Filtration Kit (ref. 17-0442-01, GE Healthcare) and the hydrodynamic radius (Angstroms) of the reference proteins (BSA, OVA, ChyA and RibA) correlated with the elution volume (Ve) using an Euler exponential equation: Hydrodynamic radius (Ang)=210.46 e^−0.189 Ve (mL), with a correlation squared coefficient of R^2=0.9973. Fractions corresponding to elution volume 8-10 mLs were recovered, and analyzed by SDS-PAGE using 15% polyacrylamide gels.

In the case of CC[C@H](C)[C@H](N)C(=O)N[C@@H](Cc1ccc(O)cc1)C(=O)N[C@@H](CCCCN)C(=O)N[C@@H](C)C(=O)N[C@@H](C)C(=O)N[C@@H](CCCCN)C(=O)N[C@@H](CC(=O)O)C(=O)N[C@H](C(=O)N[C@H](C(=O)N[C@H](C(=O)N[C@@H](CO)C(=O)N[C@@H](CC(C)C)C(=O)N[C@@H](CO)C(=O)N[C@@H](CCCCN)C(=O)N[C@H](C(=O)N[C@@H](CC(C)C)C(=O)N[C@@H](CCCCN)C(=O)N[C@@H](CC(N)=O)C(=O)N[C@H](C(=O)N[C@@H](CC(N)=O)C(=O)N[C@@H](CCCCN)C(=O)N[C@@H](CC(=O)O)C(=O)O)[C@@H](C)CC)C(C)C)[C@@H](C)O)[C@@H](C)O)C(C)C [IpaA VBS1], the “N (stoichiometry)” value (talin H1-H4 [1]) is reported as 1.22, the ΔG free enthalpy (talin H1-H4 [1]; ITC) is reported as -6575 cal/mol and the ΔH enthalpy (talin H1-H4 [1]; ITC) is reported as -4104 cal/mol. The “−TΔS entropic contribution” value (talin H1-H4 [1]; ITC) was -2471 cal/mol and the “formation of a complex with talin H1-H4” value (talin H1-H4 [2]) was “did not induce the formation”.

In the case of “IYEKAKEVSSALSKVLSKI (IpaA VBS2; listed as Shigella flexneri) [purified synthetic IpaA VBS peptide]”, the “interaction with talin H1-H4 by ITC” value (talin H1-H4 [1]; ITC) is reported as “did not show any interaction” and the “formation of a complex with talin H1-H4” value (talin H1-H4 [2]) is reported as “did not induce the formation”.

For “YTKKELIECARRVSEKVSHVLAALQA [talin H46, reference compound]”, the Kd (talin H1-H4 [1]) was 60 nM, the ΔH enthalpy (talin H1-H4 [1]; ITC) was -16970 cal/mol and the “−TΔS entropic contribution” value (talin H1-H4 [1]; ITC) was “+7200 cal/mol”. For the same molecule, the “formation of a complex with talin H1-H4” value (talin H1-H4 [2]) was “formed a complex”.

In the case of CC[C@H](C)[C@H](NC(=O)[C@H](CC(C)C)NC(=O)[C@H](CO)NC(=O)[C@@H](NC(=O)[C@H](CC(C)C)NC(=O)[C@H](CC(N)=O)NC(=O)[C@H](CO)NC(=O)[C@H](CC(C)C)NC(=O)[C@H](CO)NC(=O)[C@H](CC(N)=O)NC(=O)[C@@H](NC(=O)[C@@H](NC(=O)[C@H](CCCCN)NC(=O)[C@H](CCCCN)NC(=O)[C@H](CO)NC(=O)[C@H](C)NC(=O)[C@H](CCC(=O)O)NC(=O)[C@H](Cc1ccccc1)NC(=O)[C@@H](NC(=O)[C@@H](NC(=O)[C@H](CCC(=O)O)NC(=O)[C@H](CCCNC(=N)N)NC(=O)[C@@H](N)[C@@H](C)O)[C@@H](C)O)[C@@H](C)CC)C(C)C)[C@@H](C)O)[C@@H](C)CC)C(=O)NCC(=O)N[C@H](C(=O)O)[C@@H](C)O [IpaA VBS3], the “N (stoichiometry)” value (talin H1-H4 [1]) is reported as 0.893, the ΔG free enthalpy (talin H1-H4 [1]; ITC) is reported as -9219 cal/mol and the ΔH enthalpy (talin H1-H4 [1]; ITC) is reported as -6393 cal/mol. For the same molecule, the “−TΔS entropic contribution” value (talin H1-H4 [1]; ITC) was -2826 cal/mol, the ΔG free enthalpy (talin H1-H4 [1]; ITC, listed as IpaA VBS3/TBS) was -9070 ± 103 cal/mol and the “concentration at which the complex with talin H1-H4 / migration shift could be detected” value (talin H1-H4 [2]) was 25 µM.

B1: IpaA 7-422: V5-tagged IpaA truncated derivative in which the IpaA VBS3 was deleted (protein)
chain: TQAPTFLYKATSPSSTEYSELKSKISDIHSSQTSLKTPASVSEKENFATSFNQKCLDFLFSSSGKEDVLRSIYSNSMNAYAKSEILEFSNVLYSLVHQNGLNFENEKGLQKIVAQYSELIIKDKLSQDSAFGPWSAKNKKLHQLRQNIEHRLALLAQQHTSGEALSLGQKLLNTEVSSFIKNNILAELKLSNETVSSLKLDDLVDAQAKLAFDSLRNQRKNTIDSKGFGIGKLSRDLNTVAVFPELLRKVLNDILEDIKDSHPIQDGLPTPPEDMPDGGPTPGANEKTSQPVIHYHINNDNRTYDNRVFDNRVYDNSYHENPENDAQSPTSQTNDLLSRNGNSLLNPQRALVQKVTSVLPHSISDTVQTFANNSALEKVFNHTPDNSDGIGSDLLTTSSQERSANNSLSRGHRPLN
modifications: left off: small tags and cut ends
notes: V5-tagged IpaA truncated derivative in which the IpaA VBS3 was deleted
In the case of B1, the “localization relative to talin” value (HeLa cells) is reported as “did not co-localize with talin”.

B2: GFP-A524 (protein)
chain: KSKDITKSTTEHRINNKLKVTDANIRNYVTETNADTIDKNHAIYEKAKEVSSALSKVLSKIDDTSAELLTDDISDLKNNNDITAENNNIYKAAKDVTTSLSKVLKNINKD
modifications: left off: large carriers
For B2, the “effect on cell migration / motility” value (melanocytes) was “did not drastically alter the motility”.

B3: IpaA 7-522: V5-tagged IpaA truncated derivative (protein)
chain: TQAPTFLYKATSPSSTEYSELKSKISDIHSSQTSLKTPASVSEKENFATSFNQKCLDFLFSSSGKEDVLRSIYSNSMNAYAKSEILEFSNVLYSLVHQNGLNFENEKGLQKIVAQYSELIIKDKLSQDSAFGPWSAKNKKLHQLRQNIEHRLALLAQQHTSGEALSLGQKLLNTEVSSFIKNNILAELKLSNETVSSLKLDDLVDAQAKLAFDSLRNQRKNTIDSKGFGIGKLSRDLNTVAVFPELLRKVLNDILEDIKDSHPIQDGLPTPPEDMPDGGPTPGANEKTSQPVIHYHINNDNRTYDNRVFDNRVYDNSYHENPENDAQSPTSQTNDLLSRNGNSLLNPQRALVQKVTSVLPHSISDTVQTFANNSALEKVFNHTPDNSDGIGSDLLTTSSQERSANNSLSRGHRPLNIQNSSTTPPLHPEGVTSSNDNSSDTTKSSASLSHRVASQINKFNSNTDSKVLQTDFLSRNGDTYLTRETIFEASKKVTNSLSNLISLIGTKSGTQERELQ
modifications: left off: small tags and cut ends
notes: V5-tagged IpaA truncated derivative
In the case of B3, the “localization relative to talin” value (HeLa cells) is reported as “localized to focal adhesions and other talin-containing structures”.

B4: HVD1: vinculin derivative containing only amino acid residues 1 to 257 of HV (D1 domain) (protein, listed as Homo sapiens)
chain: MPVFHTRTIESILEPVAQQISHLVIMHEEGEVDGKAIPDLTAPVAAVQAAVSNLVRVGKETVQTTEDQILKRDMPPAFIKVENACTKLVQAAQMLQSDPYSVPARDYLIDGSRGILSGTSDLLLTFDEAEVRKIIRVCKGILEYLTVAEVVETMEDLVTYTKNLGPGMTKMAKMIDERQQELTHQEHRVMLVNSMNTVKELLPVLISAMKIFVTTKNSKNQGIEEALKNRNFTVEKMSAEINEIIRVLQLTSWDEDA
modifications: Vinculin domain D1 (HVD1)
With B4 the “Radiusg (hydrodynamic radius of a globular protein with the same MW)” value [3] was 24.36 Ang, the “Radiusm/Radiusg (RH/RG ratio)” value [3] was 1.16 and the “Radiusm (estimated hydrodynamic radius)” value ([3]; SEC Superdex 75, 20 μM equimolar) was 28.25 Ang.
